Columns and labels:
[1] = system: breast cancer cells that overexpress HER2; experiment: HER2 expression and Akt activation in breast cancer cells; assay type: cell-based
[2] = system: MCF-7 human breast cancer cells; experiment: In vitro cytotoxicity, MTT assay; assay type: cell-based; settings: n = 4
Protocol: Cytotoxicity of DOX-loaded cl-micelles was assessed in MCF-7 cells by a standard MTT assay as described (Kim et al. (2009) J. Control Release, 138:197-204). Briefly, cells were seeded in a 96-well microtiter plates with 5,000 cells per well and allowed to adhere for 24 hours prior to the assay. Cells were exposed to various doses (0-50 μg/ml on DOX basis) of DOX alone, polymer micelles alone, and DOX-loaded cl-micelles for 24 hours at 37° C., followed by washing with PBS, and maintaining in DMEM medium with 10% FBS for additional 72 hours. 25 μl of MTT indicator dye (5 mg/ml) was added to each well and the cells were incubated for 2 hours at 37° C. in the dark. 100 μl of 50% DMF-20% SDS solution was added to each well and kept overnight at 37° C. Absorption was measured at 570 nm in a microplate reader (SpectraMax® M5, Molecular Devices Co., USA) using wells without cells as blanks. […]

[3] = carboxylic groups; cited from earlier work

Q: With `C=CCNC1=C2C[C@@H](C)C[C@H](OC)[C@H](O)[C@@H](C)/C=C(\C)[C@H](OC(N)=O)[C@@H](OC)/C=C\C=C(/C)C(=O)NC(=CC1=O)C2=O` [17-AAG, 17-N-allylamino-17-demethoxygeldanamycin] as the molecule, how does the Akt activation [1] read?
A: The Akt activation was “inhibited Ala activation”.

Q: And the HER2 expression [1]?
A: The HER2 expression was “downregulation of HER2 expression”.

Q: Which “IC50 (DOX equivalents)” value ([2]; MCF-7, 6 hours incubation) does the source give for `COc1cccc2c1C(=O)c1c(O)c3c(c(O)c1C2=O)C[C@@](O)(C(=O)CO)C[C@@H]3O[C@H]1C[C@H](N)[C@H](O)[C@H](C)O1.Cl` [Free DOX, Doxorubicin hydrochloride] here?
A: Its value is 0.283 ± 0.049 µg/mL.

Q: And the “IC50 (DOX equivalents)” value ([2]; MCF-7, 24 hours incubation)?
A: The value was 0.046 ± 0.021 µg/mL.

Q: Which pKa [3] does the source give for `N[C@@H](CCC(=O)O)C(=O)O` [glutamic acid] here?
A: Its pKa is “ca. 4.4”.

— US9498533B2, “Drug delivery compositions and methods” (Board of Regents of the University of Nebraska, priority 2011, dated 2016)
